The values below come from ChEMBL document CHEMBL4613218, “Synthesis, in vitro and in vivo biological evaluation of novel graveolinine derivatives as potential anti-Alzheimer agents” (Bioorg Med Chem, 2020).

SMILES strings stand for the structures. The source made the active and inactive calls. The calls are words filed in the database; no cut-off is given here.

The subject of one data set is PC-12. The experiment in a line: Cytotoxicity against rat PC12 cells assessed as growth inhibition after 48 hrs by MTT assay. The settings on record: PC-12, 48 h. The data set is classed as cell-based.
A short description of data set [1]: Cytotoxicity against human HepG2 cells assessed as inhibition of cell viability at 10 uM after 48 hrs by MTT assay relative to control. Format: cell-based. Particulars: read-out: INH.
A short description of data set [2]: Cytotoxicity against rat PC12 cells assessed as inhibition of cell viability at 10 uM after 48 hrs by MTT assay relative to control. Particulars: read-out: INH. Format: cell-based, PC-12.
Another data set concerns the target Acetylcholinesterase (Electrophorus electricus, UniProt O42275). The data set can be described thus: Inhibition of electric eel AChE using acetylthiocholine chloride as substrate preincubated for 15 mins followed by substrate addition by Ellman's method.
Another data set has as its system HepG2. The data set can be described thus: Cytotoxicity against human HepG2 cells assessed as growth inhibition after 48 hrs by MTT assay. The data set is classed as cell-based. Particulars: HepG2, 48 h.
Data set [3] deals with Amyloid-beta precursor protein (Homo sapiens) (UniProt P05067). The experiment in a line: Inhibition of self-induced human amyloid beta (1 to 42) peptide aggregation at 20 uM measured after 48 hrs by ThT fluorescence assay relative to control.
Sequence of Amyloid-beta precursor protein (Homo sapiens) (P05067 whole entry): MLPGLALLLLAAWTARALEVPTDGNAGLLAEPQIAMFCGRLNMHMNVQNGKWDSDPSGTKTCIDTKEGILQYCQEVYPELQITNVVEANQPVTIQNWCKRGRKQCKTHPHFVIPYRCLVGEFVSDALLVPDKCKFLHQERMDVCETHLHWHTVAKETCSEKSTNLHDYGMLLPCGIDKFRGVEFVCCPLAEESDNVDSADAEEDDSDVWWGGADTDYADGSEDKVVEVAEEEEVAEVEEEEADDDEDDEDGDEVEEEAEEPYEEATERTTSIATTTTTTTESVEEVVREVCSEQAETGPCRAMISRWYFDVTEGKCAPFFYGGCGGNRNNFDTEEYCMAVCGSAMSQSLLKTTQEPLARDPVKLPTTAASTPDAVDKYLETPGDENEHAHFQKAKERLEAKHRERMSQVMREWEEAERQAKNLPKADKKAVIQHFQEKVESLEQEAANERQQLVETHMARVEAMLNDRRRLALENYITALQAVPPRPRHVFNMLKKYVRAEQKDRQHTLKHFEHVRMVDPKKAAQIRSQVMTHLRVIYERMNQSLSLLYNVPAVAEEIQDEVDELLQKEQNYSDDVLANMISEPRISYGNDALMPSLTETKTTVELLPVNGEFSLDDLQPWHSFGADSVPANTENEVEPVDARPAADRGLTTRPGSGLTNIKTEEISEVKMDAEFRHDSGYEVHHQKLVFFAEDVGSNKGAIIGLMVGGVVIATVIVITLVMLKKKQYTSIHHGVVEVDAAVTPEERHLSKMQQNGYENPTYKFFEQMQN
A further data set addresses Cholinesterase (Equus caballus, UniProt P81908). The experiment in a line: Inhibition of equine serum BuChE using butyrylthiocholine chloride as substrate preincubated for 15 mins followed by substrate addition by Ellman's method.
A short description of data set [4]: Selectivity index, ratio of IC50 for electric eel AChE to IC50 for equine serum BuChE.
Data set [5] is described as follows: Toxicity in scopolamine-induced cognition deficit ICR mouse model assessed as effect on total distance travelled at 20 umol/kg, po treated 30 mins prior to scopolamine challenge and measured at 30 mins post-scopolamine challenge on day 15 of probe trial by Morris water maze test. The data set is classed as organism-based. Particulars: in vivo, 0.5 h.
For data set [6], the system named is Mus musculus. The data set can be described thus: Antialzheimer activity against scopolamine-induced cognition impairment ICR mouse model assessed as increase in path length in target quadrant at 20 umol/kg, po treated 30 mins prior to scopolamine challenge and measured at 30 mins post-scopolamine challenge on day 15 of probe trial by Morris water maze test. The data set is classed as functional, organism-based.

The subject of data set [7] is Mus musculus. The experiment in a line: Antialzheimer activity against scopolamine-induced cognition impairment ICR mouse model assessed as increase in swimming time in target quadrant at 20 umol/kg, po treated 30 mins prior to scopolamine challenge and measured at 30 mins post-scopolamine challenge on day 15 of probe trial by water maze test. Format: functional, organism-based.

For data set [8], the system named is Mus musculus. The data set can be described thus: Antialzheimer activity against scopolamine-induced cognition deficit ICR mouse model assessed as increase in number of platform crossings at 20 umol/kg, po treated 30 mins prior to scopolamine challenge and measured at 30 mins post-scopolamine challenge on day 15 of probe trial by Morris water maze test. The data set is classed as functional, organism-based.

The target of data set [9] is Amyloid-beta precursor protein (Homo sapiens) (UniProt P05067). The data set can be described thus: Inhibition of self-induced human amyloid beta (1 to 42) peptide aggregation assessed as reduction in number of amyloid beta aggregates at 20 uM measured after 48 hrs by TEM analysis.
Data set [10] concerns Mus musculus. The experiment in a line: Antialzheimer activity against scopolamine-induced cognition impairment ICR mouse model assessed as mean escape latency time at 20 umol/kg, po treated 30 mins prior to scopolamine challenge and measured at 30 mins post-scopolamine challenge for 4 days of training trial sessions by Morris water maze test (reference value: 59.8 to 62.2 secs). The data set is classed as functional.

Data set [11] is described as follows: Toxicity in scopolamine-induced cognition deficit ICR mouse model assessed as effect on swimming speed at 20 umol/kg, po treated 30 mins prior to scopolamine challenge and measured at 30 mins post-scopolamine challenge on day 15 of probe trial by Morris water maze test. The settings on record: in vivo, 0.5 h. Format: organism-based.
In data set [12] the target is Acetylcholinesterase (Torpedo californica) (UniProt P04058). The experiment in a line: Non-competitive inhibition of pacific electric ray AChE pre-incubated with enzyme for 15 mins followed by acetylthiocholine chloride substrate addition by spectrophotometric method based Lineweaver-Burk plot analysis. Particulars: Tetronarce californica.
Sequence of Acetylcholinesterase (Torpedo californica) (P04058 22-564 limits assumed): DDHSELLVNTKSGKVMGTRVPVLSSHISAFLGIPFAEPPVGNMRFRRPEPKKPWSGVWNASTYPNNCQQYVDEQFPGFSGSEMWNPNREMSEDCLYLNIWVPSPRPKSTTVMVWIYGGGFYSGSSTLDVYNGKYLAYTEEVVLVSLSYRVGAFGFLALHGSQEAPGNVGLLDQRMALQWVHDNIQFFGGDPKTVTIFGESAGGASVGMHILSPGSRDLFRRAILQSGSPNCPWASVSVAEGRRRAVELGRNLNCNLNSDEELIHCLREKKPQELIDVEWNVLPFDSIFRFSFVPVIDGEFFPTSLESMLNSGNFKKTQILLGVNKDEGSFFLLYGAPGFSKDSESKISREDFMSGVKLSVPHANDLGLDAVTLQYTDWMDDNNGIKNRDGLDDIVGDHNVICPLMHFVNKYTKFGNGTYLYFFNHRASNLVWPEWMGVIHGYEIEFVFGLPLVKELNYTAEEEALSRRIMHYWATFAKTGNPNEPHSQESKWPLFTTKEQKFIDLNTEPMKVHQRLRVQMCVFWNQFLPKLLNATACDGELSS

Sequence of Cholinesterase (P81908 whole entry): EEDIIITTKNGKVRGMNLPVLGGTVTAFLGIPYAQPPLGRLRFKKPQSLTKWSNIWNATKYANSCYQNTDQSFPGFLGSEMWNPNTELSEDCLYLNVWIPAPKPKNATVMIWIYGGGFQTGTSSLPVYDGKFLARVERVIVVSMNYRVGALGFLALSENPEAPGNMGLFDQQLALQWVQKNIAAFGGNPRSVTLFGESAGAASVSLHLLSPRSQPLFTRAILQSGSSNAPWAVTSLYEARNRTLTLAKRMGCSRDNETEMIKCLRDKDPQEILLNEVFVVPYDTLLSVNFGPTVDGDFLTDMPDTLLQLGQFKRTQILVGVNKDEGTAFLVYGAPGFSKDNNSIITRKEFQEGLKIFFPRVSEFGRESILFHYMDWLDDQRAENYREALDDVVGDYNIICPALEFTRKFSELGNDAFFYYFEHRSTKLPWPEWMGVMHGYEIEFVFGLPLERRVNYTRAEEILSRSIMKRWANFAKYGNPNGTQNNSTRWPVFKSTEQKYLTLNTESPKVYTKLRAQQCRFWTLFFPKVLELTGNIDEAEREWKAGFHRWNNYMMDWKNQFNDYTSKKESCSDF
Sequence of Acetylcholinesterase (O42275 whole entry): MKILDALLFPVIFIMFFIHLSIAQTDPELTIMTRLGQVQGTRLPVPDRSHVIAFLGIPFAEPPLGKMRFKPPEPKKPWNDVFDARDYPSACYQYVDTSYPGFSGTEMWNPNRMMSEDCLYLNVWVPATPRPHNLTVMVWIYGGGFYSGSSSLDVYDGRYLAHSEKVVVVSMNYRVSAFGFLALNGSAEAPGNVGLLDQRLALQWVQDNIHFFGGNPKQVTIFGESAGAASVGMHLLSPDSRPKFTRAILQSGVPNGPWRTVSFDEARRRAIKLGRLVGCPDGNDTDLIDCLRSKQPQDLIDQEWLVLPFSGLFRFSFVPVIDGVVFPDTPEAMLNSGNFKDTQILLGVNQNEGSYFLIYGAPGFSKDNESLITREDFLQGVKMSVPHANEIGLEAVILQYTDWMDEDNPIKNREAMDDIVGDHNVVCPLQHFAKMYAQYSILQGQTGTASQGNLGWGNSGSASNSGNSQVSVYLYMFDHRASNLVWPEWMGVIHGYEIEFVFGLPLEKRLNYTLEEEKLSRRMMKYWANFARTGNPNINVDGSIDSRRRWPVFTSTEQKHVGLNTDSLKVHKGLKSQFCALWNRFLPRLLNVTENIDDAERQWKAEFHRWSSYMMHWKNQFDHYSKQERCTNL

As to `OCCCNc1cc(-c2ccc3c(c2)OCO3)nc2ccccc12`, the IC50 was greater than 50 µM in the data set on PC-12, 4.23 µM on Acetylcholinesterase, greater than 50 µM with HepG2 and greater than 10 µM on Cholinesterase. Moreover, the figures for the cytotoxicity at 48 h, 10 µM in [1] and in data set [2] were less than 5% and 8.38%, respectively. Further, the inhibition in [3] is 36.6%. In addition, in data set [4], the Ratio IC50 is less than 0.42.

Regarding `OCCCCCCNc1cc(-c2ccc3c(c2)OCO3)nc2ccccc12`, the IC50 was greater than 50 µM with PC-12, 4.32 µM against Acetylcholinesterase, greater than 50 µM in the data set with HepG2 and 6.49 µM at Cholinesterase. In addition, the cytotoxicity at 48 h, 10 µM in [1] and in [2] was less than 5% throughout. For the same molecule, the inhibition in data set [3] stood at 39.4%. The Ratio IC50 in data set [4] worked out at 0.67.

Take `c1ccc2c(NCCCN3CCCCC3)cc(-c3ccc4c(c3)OCO4)nc2c1`: the IC50 with PC-12 came out at 7.17 µM; against Acetylcholinesterase, 4.78 µM; in the data set on HepG2, 9.21 µM; against Cholinesterase, 1.45 µM. For the same molecule, the cytotoxicity at 48 h, 10 µM was determined as 43.7% in data set [1] and 71.5% in data set [2]. In [3], the inhibition was determined as 65.6%. Moreover, the Ratio IC50 in data set [4] was determined as 3.3.

Turning to `OCCCCCCNc1cc(-c2ccccc2)nc2ccccc12`, the IC50 is greater than 50 µM in the data set on PC-12, 6.22 µM against Acetylcholinesterase, 44.2 µM in the data set with HepG2 and 2.96 µM at Cholinesterase. Besides, the cytotoxicity at 48 h, 10 µM was 12% in data set [1] and less than 5% in data set [2]. The inhibition in data set [3] is 29.2%. In addition, the Ratio IC50 in data set [4] amounted to 2.1.

As for `OCCCCNc1cc(-c2ccc3c(c2)OCO3)nc2ccccc12`, the concentration for half-maximal inhibition (IC50) in the data set with PC-12 was 34.3 µM; against Acetylcholinesterase, 4.26 µM; with HepG2 it was greater than 50 µM; against Cholinesterase it was 9.78 µM. For the same molecule, the cytotoxicity at 48 h, 10 µM in [1] is less than 5%; in [2], 14.7%. In data set [3], the inhibition came out at 44.1%. For the same molecule, in [4], the Ratio IC50 is 0.44.

As for `c1ccc2c(N3CCCC3)cc(-c3ccc4c(c3)OCO4)nc2c1`, the concentration for half-maximal inhibition (IC50) in the data set on PC-12 is greater than 50 µM; against Acetylcholinesterase, 0.72 µM; in the data set with HepG2, greater than 50 µM; against Cholinesterase it was 0.16 µM. The cytotoxicity at 48 h, 10 µM in data set [1] and in data set [2] was less than 5% in each case. Further, the Activity entry in [5] and in [11] was “Non-Toxic” each time. For the same molecule, the outcome in the data set on Mus musculus [6], in the data set on Mus musculus [7] and in the data set on Mus musculus [8] was Active. Besides, the inhibition entry in data set [9] and in [12] was “Active” in each case. In addition, in the data set on Mus musculus [10], the Time stood at 48.1 s. Besides, in data set [3], the inhibition amounted to 62.5%. For the same molecule, the Ratio IC50 in data set [4] is 4.5.

On to `COc1cc(/C=C/C(=O)CC(=O)/C=C/c2ccc(O)c(OC)c2)ccc1O`, for which the inhibition entry in data set [9] is “Active”.

Take `c1ccc(-c2cc(N3CCCC3)c3ccccc3n2)cc1`: the concentration for half-maximal inhibition (IC50) in the data set on PC-12 was determined as 24.7 µM; on Acetylcholinesterase, 3.71 µM; in the data set on HepG2 it was 30.9 µM; on Cholinesterase, 0.43 µM. Moreover, the cytotoxicity at 48 h, 10 µM in [1] worked out at 12.6%; in [2], 24.2%. In [3], this molecule had an inhibition of 57.7%. Besides, in data set [4], the Ratio IC50 came out at 8.6.

With `CCCCNc1cc(-c2ccc3c(c2)OCO3)nc2ccccc12`, the half-inhibitory concentration (IC50) in the data set on PC-12 is 46.2 µM; on Acetylcholinesterase it was 4.8 µM; in the data set with HepG2, greater than 50 µM; at Cholinesterase, 7.85 µM. For the same molecule, the cytotoxicity at 48 h, 10 µM in data set [1] was 15.4%; in [2], 11.2%. The same molecule came in with an inhibition in data set [3] of 30.6%. The Ratio IC50 in [4] turned out to be 0.61.

As for `COc1cc(-c2ccc3c(c2)OCO3)nc2ccccc12` [GRAVEOLININE], the IC50 with PC-12 was greater than 50 µM; against Acetylcholinesterase, 36.3 µM; with HepG2 it was greater than 50 µM; at Cholinesterase it was 28.2 µM. For the same molecule, the cytotoxicity at 48 h, 10 µM in [1] is 8.76%; in [2], less than 5%. Besides, the inhibition in data set [3] is 26.9%. For the same molecule, the Ratio IC50 in data set [4] worked out at 1.3.

Regarding `OCCCNc1cc(-c2ccccc2)nc2ccccc12`, the half-maximal inhibitory concentration (IC50) with PC-12 is greater than 50 µM; on Acetylcholinesterase, greater than 10 µM; in the data set with HepG2, greater than 50 µM; on Cholinesterase, greater than 10 µM. For the same molecule, the cytotoxicity at 48 h, 10 µM in data set [1] and in data set [2] was less than 5% in each case. In addition, the inhibition in [3] was 36.8%.

Turning to `c1ccc2c(NCCCN3CCOCC3)cc(-c3ccc4c(c3)OCO4)nc2c1`, the IC50 in the data set with PC-12 was greater than 50 µM; against Acetylcholinesterase it was 3.22 µM; with HepG2 it was 17.7 µM; on Cholinesterase, 8.15 µM. Also, the cytotoxicity at 48 h, 10 µM in data set [1] and in data set [2] was less than 5% throughout. The same molecule gave an inhibition in data set [3] of 61.6%. In addition, the Ratio IC50 in data set [4] worked out at 0.4.

As to `c1ccc(-c2cc(NCCCN3CCCCC3)c3ccccc3n2)cc1`, the IC50 in the data set with PC-12 was 40.5 µM; at Acetylcholinesterase, greater than 10 µM; in the data set on HepG2 it was 25.7 µM; at Cholinesterase, 1.19 µM. For the same molecule, the cytotoxicity at 48 h, 10 µM turned out to be 24.1% in [1] and 11.6% in data set [2]. The inhibition in data set [3] was 60.3%. For the same molecule, the Ratio IC50 in data set [4] was greater than 8.4.

Turning to `c1ccc(-c2cc(NCCCN3CCOCC3)c3ccccc3n2)cc1`, the IC50 in the data set on PC-12 is 35.2 µM; on Acetylcholinesterase, greater than 10 µM; in the data set on HepG2, 30.1 µM; against Cholinesterase, 4.44 µM. Besides, the values for the cytotoxicity at 48 h, 10 µM in [1] and in data set [2] were 12.7% and 12.6%, respectively. In data set [3], the inhibition was 55.5%. The Ratio IC50 in data set [4] is greater than 2.3.

In the case of `c1ccc2c(N3CCCCC3)cc(-c3ccc4c(c3)OCO4)nc2c1`, the IC50 was greater than 50 µM in the data set with PC-12, greater than 10 µM at Acetylcholinesterase, greater than 50 µM in the data set on HepG2 and 2.09 µM on Cholinesterase. In addition, the cytotoxicity at 48 h, 10 µM in data set [1] and in data set [2] was less than 5% in each case. The molecule further gave an inhibition in data set [3] of 48.5%. Further, the Ratio IC50 in data set [4] is greater than 4.8.

On to `OCCCCNc1cc(-c2ccccc2)nc2ccccc12`, for which the IC50 in the data set with PC-12 was greater than 50 µM; at Acetylcholinesterase, 9.85 µM; with HepG2, greater than 50 µM; against Cholinesterase, 4.31 µM. The cytotoxicity at 48 h, 10 µM in data set [1] and in [2] was less than 5% throughout. In data set [3], this molecule registered an inhibition of 40.7%. In addition, in data set [4], the Ratio IC50 amounted to 2.3.
